The source made the active and inactive calls.
Tests used:
HeLa = test: toxicity to human HeLa cells – cell-based, 48 h, plate reader, cherry-picks, cytotoxicity control, dose response (AID 504942); type: functional
[1] = biological target: T1, Acyl-homoserine lactone acylase PvdQ (Pseudomonas aeruginosa (strain LESB58), UniProt Q9I194); test: PvdQ acylase enzyme activity blockers – biochemical, fluorescence, plate reader and imaging, cherry-picks, dose response (AID 493231)
T1 sequence (Q9I194 whole entry): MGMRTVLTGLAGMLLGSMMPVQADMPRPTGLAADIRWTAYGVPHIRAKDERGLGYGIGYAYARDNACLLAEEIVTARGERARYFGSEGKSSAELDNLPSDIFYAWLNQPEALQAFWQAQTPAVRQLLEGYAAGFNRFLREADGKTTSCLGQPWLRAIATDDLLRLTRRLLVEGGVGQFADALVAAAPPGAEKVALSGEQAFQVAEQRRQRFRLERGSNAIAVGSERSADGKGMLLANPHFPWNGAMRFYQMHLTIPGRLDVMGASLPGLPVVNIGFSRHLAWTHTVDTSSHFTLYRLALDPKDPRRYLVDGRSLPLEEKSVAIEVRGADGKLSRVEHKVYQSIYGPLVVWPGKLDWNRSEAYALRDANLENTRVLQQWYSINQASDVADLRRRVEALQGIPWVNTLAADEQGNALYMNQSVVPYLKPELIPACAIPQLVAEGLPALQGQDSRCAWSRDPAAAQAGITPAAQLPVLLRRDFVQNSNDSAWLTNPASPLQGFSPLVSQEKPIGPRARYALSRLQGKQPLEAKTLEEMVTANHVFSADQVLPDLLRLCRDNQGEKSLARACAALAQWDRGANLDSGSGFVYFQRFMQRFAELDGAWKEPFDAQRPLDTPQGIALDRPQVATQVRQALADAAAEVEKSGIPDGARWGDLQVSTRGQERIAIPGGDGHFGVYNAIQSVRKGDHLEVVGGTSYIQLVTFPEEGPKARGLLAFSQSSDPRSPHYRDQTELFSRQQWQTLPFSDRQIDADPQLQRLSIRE

[2] = biological target: Latent membrane protein 1 (Human herpesvirus 4 (strain B95-8), UniProt P03230); test: LMP1 TES1 pathway selectivity over dsRED control – imaging, HEK293T, dual-color eGFP/dsRED, cherry-picks, selectivity assay for LMP1 NF-kB inhibitor project, dose response (AID 588398); type: functional, cell-based
Sequence of Latent membrane protein 1 (P03230 whole entry): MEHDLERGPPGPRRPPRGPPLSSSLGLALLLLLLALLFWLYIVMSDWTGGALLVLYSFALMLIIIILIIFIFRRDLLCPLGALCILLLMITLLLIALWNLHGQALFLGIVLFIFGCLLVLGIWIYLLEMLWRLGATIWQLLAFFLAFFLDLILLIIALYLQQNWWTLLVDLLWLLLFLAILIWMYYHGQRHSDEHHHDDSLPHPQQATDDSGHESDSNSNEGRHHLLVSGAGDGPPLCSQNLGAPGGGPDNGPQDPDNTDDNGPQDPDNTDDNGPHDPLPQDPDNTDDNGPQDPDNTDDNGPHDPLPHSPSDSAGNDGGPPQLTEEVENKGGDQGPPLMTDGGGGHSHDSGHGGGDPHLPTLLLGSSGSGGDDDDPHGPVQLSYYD

[3] = biological target: Multidrug resistance protein CDR1 (Candida albicans, UniProt P43071); test: inhibition of Nile Red efflux via Candida CDR1 – S. cerevisiae AD1-8u, singleplex, Cherry Pick1 hits, dose response (AID 588606); type: functional
Candida albicans [4] = test: antifungal activity against resistant Candida strain – CaCi-8, fluconazole, Alamar Blue, dry powder, dose response (AID 488807); type: functional, organism-based
Candida albicans [5] = test: Candida growth reduction in fluconazole presence – CaCi-2 strain, Alamar Blue, dry powder, set 2, antifungal resistance reversal project, dose response (AID 488930); type: functional, organism-based
Candida albicans [6] = test: resistant Candida growth with fluconazole co-treatment – CaCi-8 strain, Alamar Blue, dry powder, set 2, dose response (AID 488909); type: functional, organism-based
Candida albicans [7] = test: C. albicans growth inhibition with fluconazole – CaCi-2 strain, Alamar Blue, dry powder, set 4, dose response (AID 488943); type: functional, organism-based
Jurkat = test: SAR Analysis of small molecule inhibitors of […] specific antigen receptor-induced NF-kB activation in a Jurkat cell line using a luminescence assay - Set 3. [Related pubchem assays (depositor defined):AID435022, AID435025, AID465]; type: functional, cell-based; details: Homo sapiens
HEK293 [8] = test: HEK293T cell viability loss, resazurin readout – resazurin fluorescence, cytotoxicity control for NF-kB activator project, SAR follow-up (AID 493251); type: functional, cell-based; details: Homo sapiens
HEK293 [9] = test: SAR Analysis of small molecule inhibitors of B-cell specific antigen receptor-induced NF-kB activation in a HEK-293T cell line using a luminescence assay - Set 2. [Related pubchem assays (depositor defined):AID435022, AID435025, AID489021]; type: functional, cell-based; details: Homo sapiens
[10] = biological target: Cell division cycle 7-related protein kinase (Homo sapiens, UniProt O00311); type: functional;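 note: value obtained from a kinome-wide kinase panel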
Wee1-like protein kinase = Wee1-like protein kinase (Homo sapiens, UniProt P30291); test: Navigating the Kinome. Panel member name: WEE1; type: functional
Sequence of Wee1-like protein kinase (P30291 whole entry): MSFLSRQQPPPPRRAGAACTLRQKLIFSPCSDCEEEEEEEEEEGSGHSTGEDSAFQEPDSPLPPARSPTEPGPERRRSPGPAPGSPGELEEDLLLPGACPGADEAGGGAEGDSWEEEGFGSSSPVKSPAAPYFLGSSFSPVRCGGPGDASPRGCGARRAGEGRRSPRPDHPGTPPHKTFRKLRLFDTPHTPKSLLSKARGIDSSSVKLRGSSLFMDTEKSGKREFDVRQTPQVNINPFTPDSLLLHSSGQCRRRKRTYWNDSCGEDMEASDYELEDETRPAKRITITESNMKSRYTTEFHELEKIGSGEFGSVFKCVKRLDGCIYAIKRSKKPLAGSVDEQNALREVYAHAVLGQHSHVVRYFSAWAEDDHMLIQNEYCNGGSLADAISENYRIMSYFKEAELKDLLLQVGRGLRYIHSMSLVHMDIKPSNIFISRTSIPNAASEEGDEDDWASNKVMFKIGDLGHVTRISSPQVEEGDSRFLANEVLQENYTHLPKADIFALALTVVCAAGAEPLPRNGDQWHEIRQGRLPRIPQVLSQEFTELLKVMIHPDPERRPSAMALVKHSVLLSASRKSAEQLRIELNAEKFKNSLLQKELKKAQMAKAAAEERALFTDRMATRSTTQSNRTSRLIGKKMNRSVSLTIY

[11] = biological target: Macrophage colony-stimulating factor 1 receptor (Homo sapiens, UniProt P07333); type: functional;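 note: value comes from the Navigating the Kinome screening panel, CSF1R member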
[12] = biological target: Tyrosine-protein kinase Fyn (Homo sapiens, UniProt P06241); type: functional
Misshapen-like kinase 1 = Misshapen-like kinase 1 (Homo sapiens, UniProt Q8N4C8); type: functional;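 note: kinome panel screen with MINK as the panel member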
[13] = biological target: Serine/threonine-protein kinase TAO1 (Homo sapiens, UniProt Q7L7X3); type: functional
[14] = biological target: Insulin-like growth factor 1 receptor (Homo sapiens, UniProt P08069); test: Navigating the Kinome. Panel member name: IGF1R; type: functional
Sequence of Insulin-like growth factor 1 receptor (P08069 31-736 limits assumed): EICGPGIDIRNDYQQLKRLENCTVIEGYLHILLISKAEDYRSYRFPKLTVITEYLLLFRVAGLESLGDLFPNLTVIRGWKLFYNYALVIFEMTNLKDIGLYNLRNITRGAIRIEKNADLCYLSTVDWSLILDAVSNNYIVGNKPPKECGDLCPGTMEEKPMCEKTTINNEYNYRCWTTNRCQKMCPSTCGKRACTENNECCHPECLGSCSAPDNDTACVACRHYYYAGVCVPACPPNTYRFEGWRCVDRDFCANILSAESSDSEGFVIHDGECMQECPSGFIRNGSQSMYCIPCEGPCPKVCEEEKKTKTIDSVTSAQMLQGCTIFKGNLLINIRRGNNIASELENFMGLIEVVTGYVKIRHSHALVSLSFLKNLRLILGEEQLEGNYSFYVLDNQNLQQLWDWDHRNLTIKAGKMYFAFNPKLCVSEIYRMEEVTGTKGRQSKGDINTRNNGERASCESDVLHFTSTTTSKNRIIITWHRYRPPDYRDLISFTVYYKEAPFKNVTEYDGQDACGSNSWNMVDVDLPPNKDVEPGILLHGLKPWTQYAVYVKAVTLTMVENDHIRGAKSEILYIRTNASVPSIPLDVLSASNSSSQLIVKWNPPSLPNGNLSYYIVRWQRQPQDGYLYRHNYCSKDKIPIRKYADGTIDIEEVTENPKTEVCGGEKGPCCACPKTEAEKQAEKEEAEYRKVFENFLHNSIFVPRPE
Sequence of Insulin-like growth factor 1 receptor (P08069 741-1367 limits assumed): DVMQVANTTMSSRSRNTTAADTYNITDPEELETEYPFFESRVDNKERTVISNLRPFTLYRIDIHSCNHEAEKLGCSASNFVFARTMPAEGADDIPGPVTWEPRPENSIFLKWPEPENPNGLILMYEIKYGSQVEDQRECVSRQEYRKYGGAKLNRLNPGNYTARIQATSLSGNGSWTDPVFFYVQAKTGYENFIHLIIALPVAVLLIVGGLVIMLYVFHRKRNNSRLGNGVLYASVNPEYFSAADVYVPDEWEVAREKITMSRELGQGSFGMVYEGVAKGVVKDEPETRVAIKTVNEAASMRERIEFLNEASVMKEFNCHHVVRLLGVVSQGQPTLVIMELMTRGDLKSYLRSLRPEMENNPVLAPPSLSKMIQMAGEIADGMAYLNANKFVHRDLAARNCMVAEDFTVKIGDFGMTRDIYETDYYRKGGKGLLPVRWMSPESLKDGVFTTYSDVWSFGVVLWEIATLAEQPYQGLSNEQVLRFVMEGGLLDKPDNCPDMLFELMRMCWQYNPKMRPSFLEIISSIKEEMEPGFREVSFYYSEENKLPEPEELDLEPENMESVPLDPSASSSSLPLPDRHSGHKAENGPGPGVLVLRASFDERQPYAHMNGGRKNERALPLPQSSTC

[15] = biological target: Mitogen-activated protein kinase kinase kinase kinase 4 (Homo sapiens, UniProt O95819); type: functional
Sequence of Mitogen-activated protein kinase kinase kinase kinase 4 (O95819 whole entry): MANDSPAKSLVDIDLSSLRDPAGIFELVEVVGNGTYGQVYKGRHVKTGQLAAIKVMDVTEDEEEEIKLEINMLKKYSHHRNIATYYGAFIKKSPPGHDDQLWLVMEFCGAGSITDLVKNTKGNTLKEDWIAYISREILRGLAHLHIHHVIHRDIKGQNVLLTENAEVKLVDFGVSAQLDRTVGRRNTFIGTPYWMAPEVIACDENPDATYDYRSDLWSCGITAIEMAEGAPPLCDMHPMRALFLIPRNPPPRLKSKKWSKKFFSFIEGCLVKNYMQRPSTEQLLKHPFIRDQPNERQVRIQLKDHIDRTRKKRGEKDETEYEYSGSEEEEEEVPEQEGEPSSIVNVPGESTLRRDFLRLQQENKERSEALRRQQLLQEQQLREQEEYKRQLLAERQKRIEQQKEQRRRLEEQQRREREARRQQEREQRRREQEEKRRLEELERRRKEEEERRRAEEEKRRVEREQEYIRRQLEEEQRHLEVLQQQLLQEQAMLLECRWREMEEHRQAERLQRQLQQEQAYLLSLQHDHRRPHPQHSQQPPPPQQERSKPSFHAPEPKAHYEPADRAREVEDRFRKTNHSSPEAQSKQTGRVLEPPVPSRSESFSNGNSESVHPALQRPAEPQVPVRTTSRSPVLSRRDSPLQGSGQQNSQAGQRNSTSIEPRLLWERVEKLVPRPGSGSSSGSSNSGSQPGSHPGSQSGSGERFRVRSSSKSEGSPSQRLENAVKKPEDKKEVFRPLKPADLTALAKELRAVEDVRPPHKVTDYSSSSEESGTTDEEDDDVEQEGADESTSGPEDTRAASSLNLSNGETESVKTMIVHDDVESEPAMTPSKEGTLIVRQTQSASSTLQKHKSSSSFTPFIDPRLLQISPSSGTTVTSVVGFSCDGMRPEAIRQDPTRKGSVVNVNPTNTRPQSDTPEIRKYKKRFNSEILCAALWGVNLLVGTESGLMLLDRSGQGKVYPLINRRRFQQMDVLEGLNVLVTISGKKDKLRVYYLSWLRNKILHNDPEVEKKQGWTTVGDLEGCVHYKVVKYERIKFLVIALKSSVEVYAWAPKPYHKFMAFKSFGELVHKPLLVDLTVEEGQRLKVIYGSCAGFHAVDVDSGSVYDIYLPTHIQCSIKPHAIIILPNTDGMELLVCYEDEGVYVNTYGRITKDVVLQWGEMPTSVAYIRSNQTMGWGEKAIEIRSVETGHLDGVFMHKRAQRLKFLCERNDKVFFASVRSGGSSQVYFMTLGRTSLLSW

[16] = biological target: Tyrosine-protein kinase BTK (Homo sapiens, UniProt Q06187); type: functional
[17] = biological target: Tyrosine-protein kinase Lck (Homo sapiens, UniProt P06239); type: functional;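 note: lck was assayed as one member of a kinase panel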
[18] = biological target: Vascular endothelial growth factor receptor 2 (Homo sapiens, UniProt P35968); type: functional
Sequence of Vascular endothelial growth factor receptor 2 (P35968 whole entry): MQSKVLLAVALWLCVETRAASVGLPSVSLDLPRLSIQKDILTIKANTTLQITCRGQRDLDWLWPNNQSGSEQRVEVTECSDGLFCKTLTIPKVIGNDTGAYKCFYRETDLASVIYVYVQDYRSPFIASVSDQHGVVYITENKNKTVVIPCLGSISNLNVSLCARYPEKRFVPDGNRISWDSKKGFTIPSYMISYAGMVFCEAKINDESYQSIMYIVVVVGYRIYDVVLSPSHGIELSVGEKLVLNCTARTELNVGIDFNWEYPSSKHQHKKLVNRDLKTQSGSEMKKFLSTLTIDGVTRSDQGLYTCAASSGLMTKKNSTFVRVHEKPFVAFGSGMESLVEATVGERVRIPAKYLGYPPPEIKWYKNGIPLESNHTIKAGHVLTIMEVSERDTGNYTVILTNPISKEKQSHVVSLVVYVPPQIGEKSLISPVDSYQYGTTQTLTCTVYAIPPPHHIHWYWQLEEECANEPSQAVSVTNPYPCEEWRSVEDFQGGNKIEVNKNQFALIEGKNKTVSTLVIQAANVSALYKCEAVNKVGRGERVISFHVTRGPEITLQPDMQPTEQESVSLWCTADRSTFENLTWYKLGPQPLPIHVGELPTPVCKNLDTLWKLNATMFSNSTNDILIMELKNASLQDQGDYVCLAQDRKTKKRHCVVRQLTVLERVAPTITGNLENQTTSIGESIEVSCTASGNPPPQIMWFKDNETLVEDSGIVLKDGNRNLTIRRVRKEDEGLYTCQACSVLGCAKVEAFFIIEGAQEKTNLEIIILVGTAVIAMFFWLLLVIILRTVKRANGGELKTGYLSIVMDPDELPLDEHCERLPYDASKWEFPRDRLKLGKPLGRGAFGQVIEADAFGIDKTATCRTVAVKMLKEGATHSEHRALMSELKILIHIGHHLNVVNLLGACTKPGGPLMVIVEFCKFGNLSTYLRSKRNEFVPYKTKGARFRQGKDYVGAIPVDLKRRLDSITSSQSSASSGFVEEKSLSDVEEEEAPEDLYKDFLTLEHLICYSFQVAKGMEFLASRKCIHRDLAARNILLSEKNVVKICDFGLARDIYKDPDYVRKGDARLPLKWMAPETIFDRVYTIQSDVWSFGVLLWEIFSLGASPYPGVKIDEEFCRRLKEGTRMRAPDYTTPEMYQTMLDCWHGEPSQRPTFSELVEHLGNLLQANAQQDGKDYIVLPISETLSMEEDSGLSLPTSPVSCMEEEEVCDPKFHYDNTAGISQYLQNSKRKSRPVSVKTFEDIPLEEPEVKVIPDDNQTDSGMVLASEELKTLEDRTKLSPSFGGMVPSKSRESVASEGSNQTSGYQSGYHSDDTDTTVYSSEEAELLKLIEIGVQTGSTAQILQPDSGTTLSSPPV

Focal adhesion kinase 1 = Focal adhesion kinase 1 (Homo sapiens, UniProt Q05397); type: functional;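 note: measured as one member of a kinome panel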
[19] = biological target: T2, Apoptotic protease-activating factor 1 (Homo sapiens, UniProt O14727); test: SAR analysis of small molecule inhibitors of Apaf-1 in a Fluorescent assay.; type: functional; details: read-out: IC50_Mean
T2 sequence (O14727 whole entry): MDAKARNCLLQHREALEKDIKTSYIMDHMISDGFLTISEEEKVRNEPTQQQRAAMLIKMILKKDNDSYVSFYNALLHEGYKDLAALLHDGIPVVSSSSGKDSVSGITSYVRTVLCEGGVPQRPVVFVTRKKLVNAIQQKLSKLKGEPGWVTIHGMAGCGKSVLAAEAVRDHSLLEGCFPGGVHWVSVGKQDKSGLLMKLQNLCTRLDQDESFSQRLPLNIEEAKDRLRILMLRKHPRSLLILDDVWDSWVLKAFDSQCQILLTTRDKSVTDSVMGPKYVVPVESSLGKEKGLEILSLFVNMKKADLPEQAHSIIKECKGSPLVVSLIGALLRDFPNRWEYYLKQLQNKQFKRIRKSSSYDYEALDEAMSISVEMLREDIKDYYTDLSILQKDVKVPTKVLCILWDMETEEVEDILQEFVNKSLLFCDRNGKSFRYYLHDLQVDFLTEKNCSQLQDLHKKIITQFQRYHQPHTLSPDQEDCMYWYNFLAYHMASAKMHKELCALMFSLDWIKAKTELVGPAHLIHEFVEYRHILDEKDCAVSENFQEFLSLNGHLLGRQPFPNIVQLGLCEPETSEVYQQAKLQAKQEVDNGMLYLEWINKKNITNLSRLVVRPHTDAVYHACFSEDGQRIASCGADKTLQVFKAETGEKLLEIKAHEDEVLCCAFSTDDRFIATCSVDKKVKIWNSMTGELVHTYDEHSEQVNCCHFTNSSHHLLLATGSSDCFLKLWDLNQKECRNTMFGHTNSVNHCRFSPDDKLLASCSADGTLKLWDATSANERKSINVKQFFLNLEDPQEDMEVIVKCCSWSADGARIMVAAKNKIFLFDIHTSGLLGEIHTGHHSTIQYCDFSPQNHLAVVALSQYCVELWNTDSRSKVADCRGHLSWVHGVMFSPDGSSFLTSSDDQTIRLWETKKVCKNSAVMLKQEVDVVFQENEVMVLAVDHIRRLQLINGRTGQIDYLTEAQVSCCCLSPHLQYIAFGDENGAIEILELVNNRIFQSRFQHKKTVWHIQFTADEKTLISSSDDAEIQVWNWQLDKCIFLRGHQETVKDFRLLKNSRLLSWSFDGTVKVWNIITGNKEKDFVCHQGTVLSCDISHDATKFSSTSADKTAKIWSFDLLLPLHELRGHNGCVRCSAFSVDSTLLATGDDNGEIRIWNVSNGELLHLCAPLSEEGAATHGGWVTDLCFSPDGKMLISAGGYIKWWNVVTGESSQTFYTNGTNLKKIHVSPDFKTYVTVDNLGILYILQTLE

BJ [20] = test: cells; type: functional, cell-based; details: Homo sapiens
cells [21] = type: functional, cell-based
[22] = DRD fibroblast viability loss – cell-based, non-viral oncogenic, luminescence, dose response (AID 1934); type: functional; details: Homo sapiens
cells [23] = type: functional, cell-based; remark: listed apart in the source
[24] = tested on: Streptococcus sp. 'group A'; test: Streptococcus pyogenes SK(-)GAS viability under kanamycin – luminescence, BacTiterGlo, confirmation, counter-screen for streptokinase expression inhibitor project, dose response (AID 1900); type: functional, organism-based
BJ [25] = test: BJ-TERT fibroblast viability loss – cell-based, RAS-independent, luminescence, dose response (AID 1933); type: functional; details: Homo sapiens
Streptococcus = test: GAS UMAA2166 growth inhibition – luminescence, BacTiterGlo, counter-screen for streptokinase expression inhibitor project, dose response (AID 1915); type: functional, organism-based;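 note: potency for reduction of bacterial viability or growth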
INS1 = test: INS-1E survival protection against cytokine death – cell-based, luminescence, retest, dose response (AID 449756); type: functional; details: Rattus norvegicus;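 note: cell death triggered by IL-1 beta plus TNF-alpha plus IFN-gamma mixture; protective hits raise ATP signal compared with cytokine alone wells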
BJ [26] = test: growth inhibition of engineered Ras-driven BJ cells – cell-based, alamar blue fluorescence, cherrypicked samples, dose response (AID 2631); type: functional; details: Homo sapiens;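 note: confirmatory dose-response assay in RAS-dependent BJ fibroblasts engineered with TERT, LT and ST, with cytotoxicity read by fluorescence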
BJ [27] = test: BJ-TERT-LT-ST fibroblast viability loss – cell-based, RAS-independent, luminescence, dose response (AID 1935); type: functional; details: Homo sapiens;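 note: BJ fibroblasts immortalized with TERT plus LT and ST oncogenes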
Streptokinase A = biological target: T3, Streptokinase A (Streptococcus pyogenes serotype M1, UniProt P10520); test: viability-normalized secreted streptokinase activity reduction – plasminogen activation absorbance, OD405, dose response (AID 1914); type: functional, Streptococcus pyogenes M1 GAS;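 note: secreted streptokinase activity via plasminogen activation per viability signal from cell pellet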
T3 sequence (P10520 whole entry): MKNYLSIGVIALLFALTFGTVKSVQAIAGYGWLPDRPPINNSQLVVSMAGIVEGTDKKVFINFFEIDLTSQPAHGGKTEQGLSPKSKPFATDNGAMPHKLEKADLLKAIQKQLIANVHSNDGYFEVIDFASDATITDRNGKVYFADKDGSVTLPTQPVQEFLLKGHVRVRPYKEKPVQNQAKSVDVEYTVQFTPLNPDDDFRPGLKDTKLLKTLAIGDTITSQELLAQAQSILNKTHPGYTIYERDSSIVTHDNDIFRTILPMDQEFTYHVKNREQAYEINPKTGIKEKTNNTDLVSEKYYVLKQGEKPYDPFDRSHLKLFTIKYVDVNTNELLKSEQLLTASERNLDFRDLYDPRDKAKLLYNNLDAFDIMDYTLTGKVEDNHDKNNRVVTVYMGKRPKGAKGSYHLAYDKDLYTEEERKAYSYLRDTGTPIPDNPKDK

[28] = SAR analysis of small molecule inhibitors of Apaf-1 using a LZ-Caspase-9/Caspase-3 Fluorescent Selectivity assay - Set 2.; type: functional; details: read-out: IC50_Mean
[29] = biological target: T2, Apoptotic protease-activating factor 1; test: SAR analysis of small molecule Inhibitors of Apaf-1 in a Fluorescent assay - set 2.; type: functional; details: read-out: IC50_Mean
Cytochrome P450 3A4 = Cytochrome P450 3A4 (Homo sapiens, UniProt P08684);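 note: CYP3A4 tested as one member of a cytochrome P450 panel screen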

Compound: N#CC(c1ccccc1)c1cccc(Cl)n1 (stereo not drawn)
- AC50 (HeLa): > 380 µM (inactive)
- AC50 [1]: 1.1 µM (active)

Compound: O=C1CN(C(=O)c2ccc(F)c(S(=O)(=O)N3CCOCC3)c2)c2ccccc2N1
- AC50 [2]: 48.3 µM (active)

Compound: COc1ccc(-c2sc3cc4c(cc3c2-c2ccc(OCCN3CCCCC3)cc2)OCO4)cc1
- EC50 [3]: 62 nM (active)

Compound: O=C(c1ccc(Cl)cc1)N1CCN(c2ccccn2)CC1
- AC50 (Candida albicans [4]): 640 nM (active)
- AC50 (Candida albicans [5]): 12 µM (active)
- AC50 (Candida albicans [6]): 28.1 µM (active)
- AC50 (Candida albicans [7]): 24.5 µM (active)

Compound: CCOc1ccc(-c2nc(CSCC(=O)N3CCCC3)c(C)o2)cc1
- IC50 (Jurkat): > 80 µM (inactive)
- IC50 (HEK293 [8]): > 80 µM (inactive)
- IC50 (HEK293 [9]): 46.6 µM (inactive)

Compound: N#Cc1cccc(Nc2ncnc(Nc3ccc(F)cc3)n2)c1
- Ki [10]: 100 nM (active)
- Ki (Wee1-like protein kinase): > 3.16 µM (inactive)

Compound: O=C(Cc1ccccc1)Nc1cccc(-c2nc3sccn3c2-c2ccnc(Nc3ccccc3Cl)n2)c1
- Ki [11]: 631 nM (active)
- Ki [12]: > 6.31 µM (inactive)
- Ki (Misshapen-like kinase 1): > 5.01 µM (inactive)
- Ki [13]: > 6.31 µM (inactive)
- Ki [14]: 1.26 µM (active)
- Ki [15]: > 5.01 µM (inactive)
- Ki [16]: > 6.31 µM (inactive)
- Ki [17]: > 6.31 µM (inactive)
- Ki [18]: 501 nM (active)
- Ki (Focal adhesion kinase 1): 3.16 µM (active)

Compound: Cc1nc2cc(-c3nc4cc(NC(=O)c5cccs5)ccc4[nH]3)ccc2[nH]1
- IC50 [19]: 41.2 µM (active)

Compound: CCCc1sc(N/N=C/c2ccccn2)nc1-c1ccc(F)cc1
- EC50 (BJ [20]): 10.7 µM (active)
- EC50 (cells [21]): 38.1 µM (active)
- EC50 [22]: 19.9 µM (active)
- EC50 (cells [23]): 74.4 µM (active)
- EC50 [24]: 7.2 µM (active)
- EC50 (BJ [25]): 6.54 µM (active)
- EC50 (Streptococcus): 10.8 µM (active)
- AC50 (INS1): 904 nM (active)
- EC50 (BJ [26]): 19.4 µM (active)
- EC50 (BJ [27]): 7.71 µM (active)
- EC50 (Streptokinase A): > 150 µM (not active)

Compound: O=C1C(=O)N(Cc2ccc(Cl)c(Cl)c2)c2ccccc21
- IC50 [28]: 22.7 µM (active)
- IC50 [29]: 34 µM (active)
- AC50 (Cytochrome P450 3A4): 7.94 µM (inconclusive)
